What is called solubility is the dissolved amount per volume that the medium holds.

≈ marks a conversion by molar mass, not a printed value. Where “and” joins values, the source holds several entries; their conditions need not be identical. Equal entries are not always repeated.

The results in this text go back to patent publication US12703693B2, “Crystalline forms of N-{3-[(1S)-1-{[6-(3,4-dimethoxyphenyl)pyrazin-2-yl]amino}ethyl]phenyl}-5-methylpyridine-3-carboxamide and related products and methods” (GB002, INC., priority 2021, dated 2026).

Series [1] is described as follows: Particle size distribution (PSD) of micronized / spray dried material. The class given is physicochemical. Particulars: for Dv10 (μm) 1 / Dv50 (μm) 1 / Dv90 (μm) 1 / SPAN1 / Dv10 (μm) 2 / Dv50 (μm) 2 / Dv90 (μm) 2 / SPAN 2: wet polished (wet milled + spray dried) Compound 1 Form A; for Dv10 (μm) 1 / Dv50 (μm) 1 / Dv90 (μm) 1 / SPAN1: PSD set 1; for Dv10 (μm) 2 / Dv50 (μm) 2 / Dv90 (μm) 2 / SPAN 2: PSD set 2. From the text:
Crystalline Compound 1 Form A was fed into a grinding chamber tangentially by vacuum created by the venturi system using pressurized nitrogen (venturi pressure, Pvent, above grind pressure, Pgrind). Compressed nitrogen was also used for the jet nozzles in the walls of the chamber. The feed flow rate was set and controlled automatically (by a gravimetric feeder) or manually. Once inside the milling chamber particles were accelerated by a series of perimeter jets, in a spiral movement. The compressed fluid issuing from the nozzles expands from Pgrind and imparts very high rotational speeds in the chamber. The micronizing effect occurs when the slower incoming particles and the faster particles in the spiral path collide. While centrifugal force retains the larger particles at the periphery of the milling chamber, the smaller particles exit with the exhaust gas from the center of the chamber. Five 20 g trials were performed in a 1.5″ jet mill, under varying feed rates (Ffeed,JM,) and pressures; the optimal conditions were used for a sixth larger scale 50 g trial.
Aqueous suspensions of crystalline Compound 1 Form A in water (5% w/w or 10% w/w) were processed via microfluidization with a HPH18 (M-110EH-30 Microfluidics Pilot) wet milling apparatus equipped with an auxiliary processing module (200 μm) and an interaction chamber (Z-shape, 100 μm). The unit was initiated at a given pressure for the first five cycles to perform a pre-milling of the suspension, using only the auxiliary processing module (200 μm). The interaction chamber (100 μm) was then introduced and the suspension processed at a defined pressure. The temperature was controlled, using a reactor jacket, and recorded. To address clogging of the micronization chambers (observed after ~25 cycles), the pressure was increased from 25 to 60 bar.
The material isolated from the first run 1A, was dived into three (1BI, 1BII and 1BIII); runs 2A and 3A were spray dried to produce samples 2B and 3B, respectively. […] Runs 2B and 3B were additionally characterized for specific surface area (SSA). See Table 27 (runs 1BI, 1BII and 1BIII) and Table 28 (runs 2B and 3B) for conditions and product characterization. […]
Two 250 g batches of crystalline Compound 1 Form A were each suspended in water (5 L) and wet polished in a wet milling HPH18 (M-110EH-30 Microfluidics Pilot) apparatus, equipped with an auxiliary processing module (200 μm) and an interaction chamber (Z-shape, 100 μm). The unit was initiated at 50 bar for the first five cycles to perform a pre-milling of the suspension, using only the auxiliary processing module (200 μm). The interaction chamber (100 μm) was then introduced and the suspension processed at 50 bar (increased to 60 or 70 bar if the system clogged). The temperature was maintained at 18-28° C. using a reactor jacket. The Reactor agitation speed was 280 RPM (batch 1) and 390 RPM (batch 2). The first batch was micronized for 25 cycles and particle size distribution analyzed after 5, 15 and 20 cycles; the second batch was micronized for […] and particle size distribution analyzed after 15, 20, 25 and 35 cycles.
Both batches were then spray dried (separately) using a Büchi spray dryer, using an open loop system. The unit was equipped with a two-fluid nozzle: cap and orifice diameters of 1.5 and 0.7 mm, respectively operated with nitrogen. The aspirator, blowing nitrogen, was set at 100% capacity (~40 kg/h). The suspension feed flow was set to 8 ml/min, high and the drying outlet temperature to 75±1° C. […] Total yield (both batches combined) was 267 g (53%).
Two 250 g batches (250 g and 238 g; 488 g total) of crystalline Compound 1 Form A coated with ~2% L-leucine were each suspended in water (5 L) and wet polished in a wet milling HPH18 (M-110EH-30 Microfluidics Pilot) apparatus, under the same process as described in the previous example. The first batch was micronized for 25 cycles and the second for 30 cycles. […]

The nature of series [2]: Product characterization of micronized / spray dried powder (XRPD, amorphous content, water content by KF, assay and related substances, SSA). The class given is physicochemical. Particulars: for KF: water content. From the text:
The final spray dried product was characterized for assay and related substances, PSD, water content by KF and XRPD and the results shown in Table 43. The two sub-batches were blended to obtain the final product, with a total final yield was 137 g (68%), see Table 44.

Test in series [3]: as above
The class given is physicochemical.

Series [4] in a line: Solubility in ethyl acetate and ethyl acetate+2% water (Crystal16 parallel crystallizer). The class given is physicochemical. On the procedure: The solubility of crystalline Forms A and B of Compound 1 in ethyl acetate was determined using a Crystal16® parallel crystallizer. Two heating rates were used, 1° C./min and 0.5° C./min. The suspensions were heated to 78° C. and cooled to 10° C. at 0.2° C./min and maintained for 2 h at 10° C. […] The suspensions were heated to 78° C. at 1° C./min, cooled to 10° C. at 0.2° C./min and maintained for 2 h at 10° C. FIG. 15 compares the resulting solubility curve with the pure ethyl acetate.

Series [5] is described as follows: Solubility in ethanol/water mixtures. As to conditions: 22 °C, aqueous with cosolvent or surfactant or cyclodextrin, thermodynamic from solid.
Description: Phosphate Buffer contained NaH2PO4·H2O (0.345 g), sodium hydroxide aqueous solution (0.2M, 10.001 mL), sodium chloride (0.576 g) and water (qs ad 100.0 mL); • Ethanol/Water (30/70) contained Ethanol (30.0 g) and Water (70.0 g); • Ethanol/Water (40/60) contained Ethanol (40.0 g) and Water (60.0 g); • Ethanol/Water (50/50) contained Ethanol (50.0 g) and Water (50.0 g); and • Ethanol/Water (45/55) contained Ethanol (4.50 g) and Water (5.51 g).
Where [6] appears, read: Compound 1 alone after wet milling, BATCH 01: 20 cycles/P = 50 bar, BATCH 02: 35 cycles/P = 70 bar.
Where [7] appears, read: Compound 1 alone, spray dried, individual batch analyses, cyclone 1.
[8] abbreviates: Compound 1 alone, spray dried, individual batch analyses, cyclone 2.
The mark [9] stands for this setting: final product, Compound 1 alone, wet polished and spray dried.
Where [10] appears, read: jet milled crystalline Compound 1 Form A, label = jet mill run.
The mark [11] stands for this setting: wet polished (wet milled + spray dried) Compound 1 Form A.
Where [12] appears, read: wet milled aqueous suspension of Compound 1 Form A, cycles/pressure: 1A 30/60 bar, 2A 45/50 bar, 3A 30/50 bar.

In series [1] (setting [6]), `COc1ccc(-c2cncc(N[C@@H](C)c3cccc(NC(=O)c4cncc(C)c4)c3)n2)cc1OC` [BATCH 01] came in with a Dv10 of 0.2 μm, a Dv50 of 0.5 μm and a Dv90 of 1.7 μm.
In series [1] (setting [6]), `COc1ccc(-c2cncc(N[C@@H](C)c3cccc(NC(=O)c4cncc(C)c4)c3)n2)cc1OC` [BATCH 02] registered a Dv10 of 0.3 μm, a Dv50 of 0.8 μm and a Dv90 of 3.4 μm.
`COc1ccc(-c2cncc(N[C@@H](C)c3cccc(NC(=O)c4cncc(C)c4)c3)n2)cc1OC` [Compound 1, N-{3-[(1S)-1-{[6-(3,4-dimethoxyphenyl)pyrazin-2-yl]amino}ethyl]phenyl}-5-methylpyridine-3-carboxamide]: in series [1] (setting [7]), the Dv10 is 0.1 μm and 0.3 μm; the Dv50 is 0.4 μm and 0.5 μm; the Dv90 is 3.1 μm and 1.5 μm; the SPAN is 7.2 and 2.1. For the same compound, in series [1] (setting [8]), the Dv10 is 0.1 μm and 0.3 μm; the Dv50 was 0.4 μm and 0.5 μm; the Dv90 was 2.9 μm and 1.4 μm; the SPAN was 7.9 and 2.0. In series [1] (setting [9]), this compound returned a Dv10 of 0.3 μm, a Dv50 of 0.6 μm, a Dv90 of 3.3 μm and an SPAN of 4.7. In series [1] (setting [10]), this compound displayed a Dv10 of 0.4 μm, a Dv50 of 1.2 μm, a Dv90 of 2.8 μm and an SPAN of 2.0. Further, in series [2] (setting [9]), the Bulk density is 0.10 g/mL, the “KF (water content)” value was 0.3 % w/w and the XRPD entry is given as “Form A”. For the same compound, the “Amorphous content by DSC” value in series [3] (setting [9]) is on record as <10 % w/w. Besides, in series [3] (setting [10]), the “Amorphous content by DSC” value is on record as 46 % w/w, the Assay is 97.70 % LC, the Impurities was 1.10 % area and the “Water content KF” value is on record as 1.4 % w/w. The XRPD entry in series [3] (setting [10]) is listed as “P + A”. The “Specific Surface Area by BET” value in series [3] (jet milled crystalline Compound 1 Form A, label = jet mill run, in m2/g (unit assumed)) is 10.35.
For `COc1ccc(-c2cncc(N[C@@H](C)c3cccc(NC(=O)c4cncc(C)c4)c3)n2)cc1OC` [Compound 1BIII], in series [1], the “Dv10 (μm) 1” value is given as 1.7 μm, the “Dv50 (μm) 1” value was 3.4 μm, the “Dv90 (μm) 1” value is 6.6 μm and the SPAN1 is recorded as 1.4. Moreover, in series [1], the “Dv10 (μm) 2” value came to 1.4 μm, the “Dv50 (μm) 2” value is on record as 3.1 μm, the “Dv90 (μm) 2” value was determined as 6.6 μm and the “SPAN 2” value was 1.7. Moreover, in series [2] (setting [11]), the KF turned out to be 0.1 % w/w, the Amorphous content was <10 % w/w, the Assay came out at 99.40 % LC and the Impurities came out at 1.10 % area. For the same compound, the XRPD entry in series [2] (setting [11]) was “Crystalline”.
In the case of `COc1ccc(-c2cncc(N[C@@H](C)c3cccc(NC(=O)c4cncc(C)c4)c3)n2)cc1OC` [Compound 1BII], in series [1], the “Dv10 (μm) 1” value came to 1.7 μm, the “Dv50 (μm) 1” value is recorded as 3.3 μm, the “Dv90 (μm) 1” value came out at 6.3 μm and the SPAN1 was found to be 1.4. For the same compound, in series [1], the “Dv10 (μm) 2” value is 1.3 μm, the “Dv50 (μm) 2” value is 3 μm, the “Dv90 (μm) 2” value is recorded as 6.1 μm and the “SPAN 2” value worked out at 1.6. Further, in series [2] (setting [11]), the KF was 0.2 % w/w, the Amorphous content was <10 % w/w, the Assay worked out at 102.0 % LC and the Impurities was 0.9 % area. Besides, the XRPD result in series [2] (setting [11]) was “Crystalline”.
Regarding `COc1ccc(-c2cncc(N[C@@H](C)c3cccc(NC(=O)c4cncc(C)c4)c3)n2)cc1OC` [Compound 1BI], in series [1], the “Dv10 (μm) 1” value turned out to be 1.8 μm, the “Dv50 (μm) 1” value is listed as 3.5 μm, the “Dv90 (μm) 1” value is 6.6 μm and the SPAN1 turned out to be 1.4. In series [1], the “Dv10 (μm) 2” value is recorded as 1.5 μm, the “Dv50 (μm) 2” value amounted to 3.3 μm, the “Dv90 (μm) 2” value came out at 6.7 μm and the “SPAN 2” value amounted to 1.6. Further, in series [2] (setting [11]), the KF is recorded as 0.5 % w/w, the Amorphous content is <10 % w/w, the Assay amounted to 98.9 % LC and the Impurities is given as 1.1 % area. Further, the XRPD entry in series [2] (setting [11]) is “Crystalline”.
On to `COc1ccc(-c2cncc(N[C@@H](C)c3cccc(NC(=O)c4cncc(C)c4)c3)n2)cc1OC` [Compound 3B-2F], for which, in series [1], the “Dv10 (μm) 2” value was determined as 1.3 μm, the “Dv50 (μm) 2” value amounted to 3.7 μm, the “Dv90 (μm) 2” value amounted to 14.7 μm and the “SPAN 2” value was 3.6.
In the case of `COc1ccc(-c2cncc(N[C@@H](C)c3cccc(NC(=O)c4cncc(C)c4)c3)n2)cc1OC` [Form B, N-{3-[(1S)-1-{[6-(3,4-dimethoxyphenyl)pyrazin-2-yl]amino}ethyl]phenyl}-5-methylpyridine-3-carboxamide], the “solubility compared with the other crystalline form” value in series [4] (ethyl acetate and ethyl acetate+2% water (both systems)) is “slightly less soluble”. Besides, the “solubility in ethyl acetate+2% water compared to pure ethyl acetate” value in series [4] (presence of water (2%)) was “significantly more soluble”.
Take `CC(C)C[C@H](N)C(=O)O` [L-Leucine]: in series [5] (ethanol/water 30:70 (w:w)), the solubility is 7360 µg/mL (≈ 56.1 mM), the solubility at 4 h is 7470 µg/mL (≈ 56.9 mM) and the solubility at 24 h amounted to 7260 µg/mL (≈ 55.3 mM). Moreover, in series [5] (ethanol/water 40:60 (w:w)), the solubility came out at 5880 µg/mL (≈ 44.8 mM), the solubility at 4 h came to 6040 µg/mL (≈ 46 mM) and the solubility at 24 h is 5710 µg/mL (≈ 43.5 mM). Further, in series [5] (ethanol/water 50:50 (w:w)), the solubility stood at 5070 µg/mL (≈ 38.7 mM), the solubility at 4 h was found to be 4720 µg/mL (≈ 36 mM) and the solubility at 24 h worked out at 5410 µg/mL (≈ 41.2 mM).
Consider `COc1ccc(-c2cncc(N[C@@H](C)c3cccc(NC(=O)c4cncc(C)c4)c3)n2)cc1OC` [Run 1A], for which, in series [1] (setting [12]), the Dv10 is listed as 1.7 μm, the Dv50 came out at 3.2 μm and the Dv90 stood at 6 μm.
In series [1] (setting [12]), `COc1ccc(-c2cncc(N[C@@H](C)c3cccc(NC(=O)c4cncc(C)c4)c3)n2)cc1OC` [Run 2A] returned a Dv10 of 1.3 μm, a Dv50 of 2.7 μm and a Dv90 of 4.8 μm.
In series [1] (setting [12]), `COc1ccc(-c2cncc(N[C@@H](C)c3cccc(NC(=O)c4cncc(C)c4)c3)n2)cc1OC` [Run 3A] had a Dv10 of 0.1 μm, a Dv50 of 1.0 μm and a Dv90 of 3.5 μm.
